# Measured values taken from US5466861A, “Bridged bicyclic aromatic compounds and their use in modulating gene expression of retinoid receptors” (SRI International, priority 1992, dated 1995).
# What was measured:
# Format in all cases: cell-based
# [1] = tested on: CRBPI gene RARE, bound and activated by RAR/RXR heterodimers; assay: Transient transfection CAT reporter assay, CRBPI-RARE; settings: CV-1 cells; retinoids 7 and 20 at 5×10^-7 M
# Protocol: (§1) To carry out the analysis, four different reporter constructs were prepared carrying the aforementioned gene, followed by cotransfection with RARα, RARβ, or RXRα, or with RXRα and RARα together. […] CV- 1 cells or HEP G2 cells were grown in DME medium supplemented with 10% fetal calf serum. Cells were plated at 1.0×10^5 per well in a 24-well plate 16-24 hours before transfection. In general, 100 ng of reporter plasmid, 150 ng of β-galactosidase expression vector (pCH110, Pharmacia), and variable amounts of receptor expression vector were mixed with carrier DNA (pBluescript) to 1,000 ng of total DNA per well. […] The retinoids 7 and 20 were analyzed at a concentration of 5×10^-7 M.
# [2] = tested on: RARβ2 gene promoter RARE (βRARE); assay: Transient transfection CAT reporter assay, βRARE; settings: CV-1 cells; 5×10^-7 M
# Protocol: (§2) To carry out the analysis, four different reporter constructs were prepared carrying the aforementioned gene, followed by cotransfection with RARα, RARβ, or RXRα, or with RXRα and RARα together. […] CV- 1 cells or HEP G2 cells were grown in DME medium supplemented with 10% fetal calf serum. Cells were plated at 1.0×10^5 per well in a 24-well plate 16-24 hours before transfection. In general, 100 ng of reporter plasmid, 150 ng of β-galactosidase expression vector (pCH110, Pharmacia), and variable amounts of receptor expression vector were mixed with carrier DNA (pBluescript) to 1,000 ng of total DNA per well. Chloramphenicol acetyl transferase (CAT) activity was normalized for transfection efficiency by the corresponding β-galactosidase activity as described by M. Pfahl et al., /Methods in Enzymology 153:256 (1990).
# [3] = tested on: CRBPII-RARE, activated only by RXR homodimers; assay: Transient transfection CAT reporter assay, CRBPII-RARE; settings: CV-1 cells; retinoids 7 and 20 at 5×10^-7 M
# Protocol: as §1
# RXR (RXRα) = target: T1, RXR (RXRα) (Homo sapiens, UniProt P19793); assay: TREpal-tk-reporter gene transient transfection assay with RXR expression vector; settings: for activity on TREpal-tk-reporter with RXR at 10^-7 M / activity on TREpal-tk-reporter with RXR at 10^-8 M / activity with RXR on TREpal-tk-reporter, preliminary evaluation: CV-1 cells; for activity with RXR on TREpal-tk-reporter, preliminary evaluation: RXR expression vector cotransfected; for activation of RXRα (overall conclusion): from TREpal and CRBPII reporter results
# T1 construct: homodimer readout
# T1 sequence (P19793 1-462): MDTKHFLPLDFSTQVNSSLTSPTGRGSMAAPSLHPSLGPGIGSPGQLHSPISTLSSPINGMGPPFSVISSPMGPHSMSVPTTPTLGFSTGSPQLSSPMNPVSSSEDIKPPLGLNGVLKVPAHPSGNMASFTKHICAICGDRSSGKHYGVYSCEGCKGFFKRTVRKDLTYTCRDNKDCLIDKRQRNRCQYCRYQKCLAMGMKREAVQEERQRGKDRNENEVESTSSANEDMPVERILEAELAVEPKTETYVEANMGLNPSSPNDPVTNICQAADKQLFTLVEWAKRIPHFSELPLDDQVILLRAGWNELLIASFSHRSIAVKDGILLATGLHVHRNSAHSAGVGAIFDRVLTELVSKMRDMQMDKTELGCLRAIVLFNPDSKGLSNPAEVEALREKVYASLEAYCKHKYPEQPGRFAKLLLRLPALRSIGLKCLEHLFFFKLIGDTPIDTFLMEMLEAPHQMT
# Excerpt: The TREpal-tk-reporter gene was use in the transient transfection assay of the preceding example to evaluate compounds 7 and 20 for induction of RXR activity specifically. The TREpal represents a response element that is activated by both RAR/RXR heterodimers and RXR homodimers (X-K. Zhang et al., Nature 358:587 (1992)).
# RXR = assay: Transient transfection reporter assay in other cell lines incl. Hep G2; settings: various other cell lines, including Hep G2 cells (particular high response)
# Protocol: as §2
Structure (SMILES),activation of CRBPI-RARE reporter (CAT activity) [1],activation of βRARE reporter (CAT activity) [2],activation of CRBPII-RARE reporter (CAT activity) [3],activity on TREpal-tk-reporter with RXR at 10^-7 M (RXR (RXRα)),activity on TREpal-tk-reporter with RXR at 10^-8 M (RXR (RXRα)),"activity with RXR on TREpal-tk-reporter, preliminary evaluation (RXR (RXRα))",activation of RXRα (overall conclusion) (RXR (RXRα)),RXR-specific activation in other cell lines (RXR)
"CC1(C)CCC(C)(C)c2cc(C3(c4ccc(C(=O)O)cc4)SCCS3)ccc21 [Compound 7, [2-(5,6,7,8-Tetrahydro-5,5,8,8-tetramethyl-2-naphthalenyl)-2-(4-carboxyphenyl)]-1,3-dithiolane]",no response,slightly activated,strong activators,activities similar to 9-cis-retinoic acid,neither of the active compounds revealed activity,indicated activity with RXR,effective activators,–
"CC(C)=C(c1ccc(C(=O)O)cc1)c1ccc2c(c1)C(C)(C)CCC2(C)C [Compound 20, 4-[1-(5,6,7,8-Tetrahydro-5,5,8,8-tetramethyl-2-naphthalenyl)-2-methyl-1-propenyl]benzoic acid]",no response,slightly activated,strong activators,activities similar to 9-cis-retinoic acid,neither of the active compounds revealed activity,indicated activity with RXR,effective activators,significant and RXR-specific activation
